Numbered stars: 1 amine (or outer) side, 2 acyl side, 3 side chain; on linkers, the order of the positions; unused ones are H or OH. Square brackets hold non-standard residues; d marks the D form. Peptide text beside a SMILES is read from it. * marks the point of attachment. ξ: configuration not given here. X1 = O=C([C@@H](N[*:1])c1cnc[nH]1)[*:2]; Ile(3ξ) = CCC(C)[C@H](N)C(=O)O; Lauroyl = CCCCCCCCCCCC(=O)*
Test system: SARS-CoV-2 virus

SMILES: CCCCCCCCCCCC(=O)N[C@H](C(=O)N[C@H](C(=O)N[C@@H](CO)C(=O)N[C@@H](CC(N)=O)C(=O)N[C@@H](Cc1c[nH]cn1)C(=O)N[C@@H](CO)C(=O)N[C@@H](Cc1c[nH]cn1)C(=O)N[C@@H](Cc1c[nH]cn1)C(=O)N[C@@H](Cc1c[nH]cn1)C(=O)N[C@@H](CC(=O)O)C(=O)N[C@H](C(=O)N[C@@H](CC(C)C)C(N)=O)C(C)CC)C(C)CC)c1cnc[nH]1 (stereo partly drawn) [11-KOD1, 11-Mrcpt-HISNHSHHHDIL-NH2] (Lauroyl-[X1][Ile(3ξ)]SNHSHHHD[Ile(3ξ)]L-NH2)
- result of the measurement on a negative swab (impedance changes on the sensor): no impedance changes
- result of the measurement on a positive swab (presence of the virus in the sample) ([…], MOBI SensDx reader, positive when Δ>10%): positive result (+)
